≈ marks a conversion by molar mass, not a printed value.
How the values were obtained:
[1] = Cytotoxicity against human colchicine-resistant KB-C2 cells after 48 hrs by MTT assay; conditions: KB-C2, 48 h
[2] = tested on: K562; assay: Cytotoxicity against human doxorubicin-resistant K562 cells after 6 hrs by MTT assay; format: functional, cell-based; conditions: K562, 6 h
[3] = tested on: K562; assay: Cytotoxicity against human K562 cells after 6 hrs by MTT assay; format: functional, cell-based; conditions: K562, 6 h
[4] = tested on: KB; assay: Cytotoxicity against human KB cells after 48 hrs by MTT assay
[5] = Cytotoxicity against human KB-C2 cells after 48 hrs by MTT assay; conditions: KB-C2, 48 h
[6] = tested on: MCF7; assay: Cytotoxicity against human MCF7 cells after 48 hrs by MTT assay; conditions: MCF7, 48 h

SMILES | IC50 [1] [µg/mL] | IC50 [2] [µg/mL] | IC50 [3] [µg/mL] | IC50 [4] [µg/mL] | IC50 [5] [µg/mL] | IC50 [6] [µg/mL]
COC(=O)[C@@H](C)[C@@H]1CC[C@@H]2[C@]3(CC[C@]4(C)[C@@H]([C@H](C)CC/C=C(/C)C(=O)O)CC[C@@]24C)C[C@]13CCOC(C)=O [SINOCALYCANCHINENSIN F] | 17.5 (≈ 33 µM) | 19.5 (≈ 36.7 µM) | 13.2 (≈ 24.9 µM) | 16.6 (≈ 31.3 µM) | 21.7 (≈ 40.9 µM) | 33.8 (≈ 63.7 µM)
C=C[C@@H]1CC[C@@H]2[C@]3(CC[C@]4(C)[C@@H]([C@H](C)CC/C=C(/C)C(=O)O)CC[C@@]24C)C[C@]13CCC(=O)O [SINOCALYCANCHINENSIN A] | 33.4 (≈ 73.1 µM) | 38.9 (≈ 85.2 µM) | 29.9 (≈ 65.5 µM) | 30.7 (≈ 67.2 µM) | 30.4 (≈ 66.6 µM) | 61.6 (≈ 135 µM)
C=C[C@@H]1CC[C@@H]2[C@]3(CC[C@]4(C)[C@@H]([C@H](C)[C@H]5CC=C(C)C(=O)O5)CC[C@@]24C)C[C@]13CCC(=O)O [SINOCALYCANCHINENSIN D] | 25.6 (≈ 56.3 µM) | 7 (≈ 15.4 µM) | 16.7 (≈ 36.7 µM) | 31.7 (≈ 69.7 µM) | 26.4 (≈ 58.1 µM) | 39.2 (≈ 86.2 µM)
C=C[C@@H]1CC[C@@H]2[C@]3(CC[C@]4(C)[C@@H]([C@H](C)[C@H]5CC=C(C)C(=O)O5)CC[C@@]24C)C[C@]13CCC(=O)OC [SINOCALYCANCHINENSIN E] | 1.51 (≈ 3.22 µM) | 20.5 (≈ 43.7 µM) | 22.4 (≈ 47.8 µM) | 62.2 (≈ 133 µM) | 49.2 (≈ 105 µM) | > 100
C/C(=C\CC[C@@H](C)[C@H]1CC[C@@]2(C)[C@@H]3CC[C@H]4[C@H](C)C(=O)CC[C@@]45C[C@@]35CC[C@]12C)C(=O)O [SINOCALYCANCHINENSIN H] | 17.2 (≈ 39 µM) | 19.4 (≈ 44 µM) | 14.8 (≈ 33.6 µM) | 18.6 (≈ 42.2 µM) | 18.8 (≈ 42.7 µM) | 18.6 (≈ 42.2 µM)
COc1cccc2c1C(=O)c1c(O)c3c(c(O)c1C2=O)C[C@@](O)(C(C)=O)C[C@@H]3O[C@H]1C[C@H](N)[C@H](O)[C@H](C)O1 [DAUNORUBICIN] | 11.6 (≈ 22 µM) | 8.5 (≈ 16.1 µM) | 1.49 (≈ 2.82 µM) | 0.45 (≈ 0.853 µM) | 7.9 (≈ 15 µM) | 0.033 (≈ 0.0626 µM)
C=C[C@@H]1CC[C@@H]2[C@]3(CC[C@]4(C)[C@@H]([C@H](C)CC/C=C(/C)C(=O)O)CC[C@@]24C)C[C@]13CCC(=O)OC/C=C(\C)CCC[C@H](C)CCC[C@H](C)CCCC(C)C [SINOCALYCANCHINENSIN C] | > 100 | – | > 100 | > 100 | > 100 | > 100
C/C(=C/CC[C@@H](C)[C@H]1CC[C@@]2(C)[C@@H]3CC[C@H]4[C@H](C)C(=O)CC[C@@]45C[C@@]35CC[C@]12C)C(=O)O [SINOCALYCANCHINENSIN G] | 21.4 (≈ 48.6 µM) | 7.3 (≈ 16.6 µM) | 14.8 (≈ 33.6 µM) | 19.9 (≈ 45.2 µM) | 21.6 (≈ 49 µM) | 23.7 (≈ 53.8 µM)
C=C[C@@H]1CC[C@@H]2[C@]3(CC[C@]4(C)[C@@H]([C@H](C)CC/C=C(/C)C(=O)O)CC[C@@]24C)C[C@]13CCC(=O)OC [SINOCALYCANCHINENSIN B] | 18.9 (≈ 40.2 µM) | 17.6 (≈ 37.4 µM) | 16.5 (≈ 35.1 µM) | 20.9 (≈ 44.4 µM) | 22.2 (≈ 47.2 µM) | 35.7 (≈ 75.8 µM)
